From ChEMBL document CHEMBL6134887, “Linker and Head-Group Exploration of Anti-MRSA Triaromatic Pleuromutilins” (J Med Chem, 2025)
In brackets after ≈: the same amount, converted by molar mass. Activity calls are given as the source filed them. No cut-off for these calls is given here.

Legend:
[1] = Metabolic stability in human liver microsomes assessed as half-life at 1 uM measured up to 30 mins by LC-MS/MS analysis; format: ADME, Microsome
Staphylococcus aureus [2] = experiment: Antibacterial activity against methicillin susceptible Staphylococcus aureus ATCC 29213 assessed as inhibition of bacterial growth incubated for 20 to 24 hrs by microbroth serial dilution method; format: functional; details: time 20-24 hrs, read-out: MIC100
[3] = Metabolic stability in mouse liver microsomes assessed as half-life at 1 uM measured up to 60 mins by LC-MS/MS analysis; format: ADME, Microsome
Staphylococcus aureus [4] = experiment: Antibacterial activity against methicillin resistant Staphylococcus aureus clinical isolate 55508 assessed as inhibition of bacterial growth incubated for 20 to 24 hrs by microbroth serial dilution method; format: functional; details: time 20-24 hrs, read-out: MIC100
Enterococcus faecium [5] = experiment: Antibacterial activity against vancomycin, ampicillin and ciprofloxacin resistant Enterococcus faecium clinical isolate 1 assessed as inhibition of bacterial growth incubated for 20 to 24 hrs by microbroth serial dilution method; format: functional; details: time 20-24 hrs, read-out: MIC100
Enterococcus faecium [6] = experiment: Antibacterial activity against vancomycin, ampicillin and ciprofloxacin resistant Enterococcus faecium clinical isolate 5 assessed as inhibition of bacterial growth incubated for 20 to 24 hrs by microbroth serial dilution method; format: functional; details: time 20-24 hrs, read-out: MIC100
Staphylococcus aureus [7] = experiment: Antibacterial activity against methicillin resistant Staphylococcus aureus USA300 FPR3757 assessed as inhibition of bacterial growth incubated for 20 to 24 hrs by microbroth serial dilution method; format: functional; details: time 20-24 hrs, read-out: MIC100
Staphylococcus aureus [8] = experiment: Antibacterial activity against methicillin susceptible Staphylococcus aureus ATCC 25923 assessed as inhibition of bacterial growth incubated for 20 to 24 hrs by microbroth serial dilution method; format: functional; details: time 20-24 hrs, read-out: MIC100
[9] = Metabolic stability in mouse liver assessed as intrinsic clearance at 1 uM measured up to 60 mins by LC-MS/MS analysis; format: ADME, tissue-based; details: read-out: CLH
Staphylococcus aureus [10] = experiment: Antibacterial activity against mupirocin resistant Staphylococcus aureus 4828 assessed as inhibition of bacterial growth incubated for 20 to 24 hrs by microbroth serial dilution method; format: functional; details: time 20-24 hrs, read-out: MIC100
Streptococcus pneumoniae = experiment: Antibacterial activity against Streptococcus pneumoniae assessed as inhibition of bacterial growth incubated for 20 to 24 hrs by microbroth serial dilution method; format: functional; details: time 20-24 hrs, read-out: MIC100
Enterococcus faecalis = experiment: Antibacterial activity against Enterococcus faecalis assessed as inhibition of bacterial growth incubated for 20 to 24 hrs by microbroth serial dilution method; format: functional; details: time 20-24 hrs, read-out: MIC100
Staphylococcus aureus [11] = experiment: Antibacterial activity against methicillin resistant Staphylococcus aureus clinical isolate 52518 assessed as inhibition of bacterial growth incubated for 20 to 24 hrs by microbroth serial dilution method; format: functional; details: time 20-24 hrs, read-out: MIC100
[12] = Metabolic stability in human liver assessed as intrinsic clearance at 1 uM measured up to 30 mins by LC-MS/MS analysis; format: ADME, tissue-based; details: read-out: CLH
Staphylococcus aureus [13] = experiment: Antibacterial activity against methicillin resistant Staphylococcus aureus clinical isolate 933010 assessed as inhibition of bacterial growth incubated for 20 to 24 hrs by microbroth serial dilution method; format: functional; details: time 20-24 hrs, read-out: MIC100
[14] = Toxicity in female BALB/cJRj mouse model of skin infection infected with Staphylococcus aureus ATCC 29213 assessed as skin irritation at 2 % administered twice daily at 6 hrs interval as cream formulation and measured on day 4; details: in vivo, topical_or_ocular, 96 h, route top, time 4 day
MDCK-MDR1 = experiment: Cytotoxicity against MDCKII-MDR1 cells assessed as reduction in cell viability at 1 to 10 uM measured after 3 hrs by Celltiter-Glo reagent based assay; format: toxicity, Canis lupus familiaris; details: dog, mdck-mdr1, 3 h, dose 1-10 µM
[15] = Toxicity in female BALB/cJRj mouse model of skin infection infected with Staphylococcus aureus ATCC 29213 assessed as skin toxicity at 2 % administered twice daily at 6 hrs interval as cream formulation and measured on day 4; details: in vivo, topical_or_ocular, 96 h, route top, time 4 day
Staphylococcus aureus [16] = experiment: Antibacterial activity against Staphylococcus aureus ATCC 29213 infected in skin infection female BALB/cJRj mouse model assessed as reduction in bacterial load in wound at 2 % administered twice daily at 6 hrs interval as cream formulation and measured on day 4 (reference value: 5.3 x 10^3 CFU/ml); format: functional; details: route top, time 4 day
Staphylococcus aureus [17] = experiment: Antibacterial activity against Staphylococcus aureus ATCC 29213 infected in skin infection female BALB/cJRj mouse model assessed as reduction in bacterial load in wound at 2 % administered twice daily at 6 hrs interval as cream formulation and measured on day 5; format: functional; details: route top
Staphylococcus aureus [18] = experiment: Antibacterial activity against Staphylococcus aureus ATCC 29213 infected in skin infection female BALB/cJRj mouse model assessed as reduction in bacterial load in wound at 2 % administered twice daily at 6 hrs interval as cream formulation and measured on day 1; format: functional; details: route top, time 1 day
DU-145 = experiment: Cytotoxicity against human DU-145 cells assessed as reduction in cell viability at 1 to 10 uM measured after 3 hrs by Celltiter-Glo reagent based assay; format: toxicity; details: du-145, 3 h, dose 1-10 µM
Caco-2 = experiment: Cytotoxicity against human Caco-2 cells assessed as reduction in cell viability at 1 to 10 uM measured after 1 to 8 days by Celltiter-Glo reagent based assay; format: toxicity; details: caco-2, 10 µM, dose lower 1 µM, time lower 1 day, dose upper 10 µM, time upper 8 day

| SMILES | half-life at 1 µM [1] | MIC (Staphylococcus aureus [2]) | half-life at 1 µM [3] | MIC (Staphylococcus aureus [4]) | MIC (Enterococcus faecium [5]) | MIC (Enterococcus faecium [6]) | MIC (Staphylococcus aureus [7]) | MIC (Staphylococcus aureus [8]) | CLint scaled at 1 µM [9] | MIC (Staphylococcus aureus [10]) | MIC (Streptococcus pneumoniae) | MIC (Enterococcus faecalis) | MIC (Staphylococcus aureus [11]) | CLint scaled at 1 µM [12] | MIC (Staphylococcus aureus [13]) | Activity (MDCK-MDR1) | Activity (DU-145) | Activity (Caco-2) | further results |
| --- | --- | --- | --- | --- | --- | --- | --- | --- | --- | --- | --- | --- | --- | --- | --- | --- | --- | --- | --- |
| C=C[C@]1(C)C[C@@H](OC(=O)CS[C@@H]2C[C@H]3CC[C@@H](C2)N3C)[C@]2(C)[C@H](C)CC[C@]3(CCC(=O)[C@H]32)[C@@H](C)[C@@H]1O [RETAPAMULIN] | 2.4 min | 0.12 µg/mL (≈ 0.232 µM) | 1.3 min | 0.25 µg/mL (≈ 0.483 µM) | 0.03 µg/mL (≈ 0.0579 µM) | 0.03 µg/mL (≈ 0.0579 µM) | 0.25 µg/mL (≈ 0.483 µM) | 0.06 µg/mL (≈ 0.116 µM) | 123 L/h/kg | 0.25 µg/mL (≈ 0.483 µM) | 0.06 µg/mL (≈ 0.116 µM) | 0.12 µg/mL (≈ 0.232 µM) | 0.12 µg/mL (≈ 0.232 µM) | 159 L/h/kg | 0.5 µg/mL (≈ 0.966 µM) |  |  |  |  |
| C=C[C@]1(C)C[C@@H](OC(=O)Cn2cc(-c3ccc(Cn4ccc5c(N)ncnc54)nc3)nn2)[C@]2(C)[C@H](C)CC[C@]3(CCC(=O)[C@H]32)[C@@H](C)[C@@H]1O | 1.9 min | 0.015 µg/mL (≈ 0.023 µM) | 0.58 min | < 0.015 µg/mL | 0.015 µg/mL (≈ 0.023 µM) | 0.03 µg/mL (≈ 0.046 µM) | 0.015 µg/mL (≈ 0.023 µM) | 0.06 µg/mL (≈ 0.0919 µM) | 566 L/h/kg | < 0.015 µg/mL |  |  | < 0.015 µg/mL | 199 L/h/kg | 0.03 µg/mL (≈ 0.046 µM) | Non-toxic | Non-toxic | Non-toxic | Activity [14]: Non-toxic; Activity [15]: Non-toxic; Activity (Staphylococcus aureus [16]): 2.5 log10CFU/ml; Activity (Staphylococcus aureus [17]; time 5 day): 1.5 10^7CFU/ml; Activity (Staphylococcus aureus [18]): 5.4 10^5CFU/ml |
| C=C[C@]1(C)C[C@@H](OC(=O)CSC(C)(C)CNC(=O)[C@H](N)C(C)C)[C@]2(C)[C@H](C)CC[C@]3(CCC(=O)[C@H]32)[C@@H](C)[C@@H]1O [VALNEMULIN] | > 77.9 min | 0.03 µg/mL (≈ 0.0531 µM) | 0.78 min | 0.12 µg/mL (≈ 0.212 µM) | 0.015 µg/mL (≈ 0.0266 µM) | 0.015 µg/mL (≈ 0.0266 µM) | 0.06 µg/mL (≈ 0.106 µM) | 0.12 µg/mL (≈ 0.212 µM) | 212 L/h/kg | 0.06 µg/mL (≈ 0.106 µM) | 0.06 µg/mL (≈ 0.106 µM) | 0.03 µg/mL (≈ 0.0531 µM) | 0.06 µg/mL (≈ 0.106 µM) | < 5.16 L/h/kg | 0.25 µg/mL (≈ 0.443 µM) |  |  |  |  |
| C=C[C@]1(C)C[C@@H](OC(=O)Cn2cc(-c3cccc(Nc4cc(N)ncn4)c3)nn2)[C@]2(C)[C@H](C)CC[C@]3(CCC(=O)[C@H]32)[C@@H](C)[C@@H]1O | 3.9 min | 0.015 µg/mL (≈ 0.0244 µM) | 0.76 min | 0.12 µg/mL (≈ 0.196 µM) | 0.25 µg/mL (≈ 0.407 µM) | 0.25 µg/mL (≈ 0.407 µM) | 0.03 µg/mL (≈ 0.0489 µM) | 0.25 µg/mL (≈ 0.407 µM) | 434 L/h/kg | 0.12 µg/mL (≈ 0.196 µM) | 1 µg/mL (≈ 1.63 µM) | 0.5 µg/mL (≈ 0.815 µM) | 0.06 µg/mL (≈ 0.0978 µM) | 94.9 L/h/kg | 0.12 µg/mL (≈ 0.196 µM) | Non-toxic | Non-toxic | Non-toxic |  |
| C=C[C@]1(C)C[C@@H](OC(=O)Cn2cc(-c3ccc(Cn4cnc5c(N)ncnc54)cc3)nn2)[C@]2(C)[C@H](C)CC[C@]3(CCC(=O)[C@H]32)[C@@H](C)[C@@H]1O |  | 0.03 µg/mL (≈ 0.046 µM) | < 0.5 min | 0.06 µg/mL (≈ 0.0919 µM) |  |  |  | 0.06 µg/mL (≈ 0.0919 µM) | > 600 L/h/kg | 0.06 µg/mL (≈ 0.0919 µM) |  |  | 0.03 µg/mL (≈ 0.046 µM) |  | 0.25 µg/mL (≈ 0.383 µM) |  |  |  |  |
| CC(=O)O[C@H]1C[C@@]2(C)[C@@H](C[C@@H](O)[C@H]3[C@@]4(C)CC[C@@H](O)[C@@H](C)[C@@H]4CC[C@@]32C)/C1=C(\CCC=C(C)C)C(=O)O [FUSIDIC ACID] |  | 0.015 µg/mL (≈ 0.029 µM) |  |  |  |  | 0.25 µg/mL (≈ 0.484 µM) | 0.12 µg/mL (≈ 0.232 µM) |  |  |  |  |  |  |  |  |  |  | Activity (Staphylococcus aureus [16]): 2.5 log10CFU/ml; Activity (Staphylococcus aureus [17]; time 5.0 day): Active; Activity (Staphylococcus aureus [18]): 4.8 10^4CFU/ml |
| C=C[C@]1(C)C[C@@H](OC(=O)Cn2cc(-c3cncc(C(=O)Nc4ccc(OC)nc4)c3)nn2)[C@]2(C)[C@H](C)CC[C@]3(CCC(=O)[C@H]32)[C@@H](C)[C@@H]1O | 2.3 min | < 0.015 µg/mL | 0.58 min | 0.06 µg/mL (≈ 0.0914 µM) | 0.12 µg/mL (≈ 0.183 µM) | 0.12 µg/mL (≈ 0.183 µM) | 0.03 µg/mL (≈ 0.0457 µM) | 0.12 µg/mL (≈ 0.183 µM) | 566 L/h/kg | 0.03 µg/mL (≈ 0.0457 µM) | 0.5 µg/mL (≈ 0.761 µM) | 0.12 µg/mL (≈ 0.183 µM) | 0.06 µg/mL (≈ 0.0914 µM) | 164 L/h/kg | 0.06 µg/mL (≈ 0.0914 µM) | Non-toxic | Non-toxic | Non-toxic |  |
| C=C[C@]1(C)C[C@@H](OC(=O)Cn2cc(-c3cncc(NC(=O)c4cnc(OC)cn4)c3)nn2)[C@]2(C)[C@H](C)CC[C@]3(CCC(=O)[C@H]32)[C@@H](C)[C@@H]1O | 5.7 min | 0.06 µg/mL (≈ 0.0912 µM) | 0.53 min | 0.12 µg/mL (≈ 0.182 µM) | 0.06 µg/mL (≈ 0.0912 µM) | 0.06 µg/mL (≈ 0.0912 µM) | 0.06 µg/mL (≈ 0.0912 µM) | 0.12 µg/mL (≈ 0.182 µM) | > 600 L/h/kg | 0.12 µg/mL (≈ 0.182 µM) | 1 µg/mL (≈ 1.52 µM) | 0.12 µg/mL (≈ 0.182 µM) | 0.06 µg/mL (≈ 0.0912 µM) | 65.4 L/h/kg | 0.12 µg/mL (≈ 0.182 µM) | Non-toxic | Non-toxic | Non-toxic |  |
